{"source": "paper PMC3682772", "about": "(MedChemComm, 2012)", "key": {"tubulin [1]": {"system": "tubulin", "assay": "Inhibition of [3H]colchicine binding to tubulin", "details": "inhibitor 5 µM; 1 µM tubulin, 5 µM [3H]colchicine"}, "[2]": {"system": "HUVECs capillary-like tubule network", "assay": "HUVEC endothelial tube disruption on Matrigel", "type": "cell-based, human", "details": "2 h treatment of network pre-established over 16 h"}, "[3]": {"system": "NCI-H460 non-small cell lung cancer cell line", "assay": "Cytotoxicity, SRB assay, NCI-H460", "details": "Homo sapiens, NCI-H460, read-out: GI50 SRB assay NCI-H460"}, "tubulin [4]": {"system": "tubulin", "details": "read-out: Inhibition of tubulin polymerization IC50; ref [34]; cited from earlier work"}, "[5]": {"assay": "Solubility in water / D2O", "type": "physicochemical"}}, "data": [{"smiles": "COc1ccc(/C=C\\c2cc(OC)c(OC)c(OC)c2)cc1O", "note": "[CA4, combretastatin A-4, reference compound]", "values": [{"measurement": "Inhibition of Colchicine binding", "setting": "tubulin [1]", "result": 100, "unit": "%"}, {"measurement": "Tubule disruption", "setting": "[2]; 0.01 µM", "result": "tubule disruption activity was detected"}]}, {"smiles": "COc1ccc2c(c1N)CCCC=C2c1cc(OC)c(OC)c(OC)c1", "note": "[Compound 3]", "values": [{"measurement": "Tubule disruption", "setting": "[2]; 0.10 µM", "result": "Tubule disruption and cell rounding was observed"}, {"measurement": "Tubule disruption", "setting": "[2]; 1 µM", "result": "greatly increased"}, {"measurement": "GI50", "setting": "[3]", "result": 4.69, "unit": "nM"}]}, {"smiles": "COc1ccc(/C=C\\c2cc(OC)c(OC)c(OC)c2)c(O)c1O", "note": "[CA1, Combretastatin A-1]", "values": [{"measurement": "IC50", "setting": "tubulin [4]", "result": 1900, "unit": "nM"}]}, {"smiles": "COc1ccc2c(c1N)CCCC=C2c1cc(OC)c(OC)c(OC)c1.Cl", "note": "[Compound 16]", "values": [{"measurement": "Solubility in water", "setting": "[5]; hydrochloride salt", "result": "limited solubility in water"}, {"measurement": "Amount completely dissolved", "setting": "[5]; in approximately 1.0 mL of D2O (NMR study), clear solution took several days", "result": "approximately 3 mg"}]}]}
